Data from ChEMBL document CHEMBL4020788, “Synthesis, SAR and molecular docking studies of benzo[d]thiazole-hydrazones as potential antibacterial and antifungal agents” (2017).
Activity calls are given as the source filed them. The rule behind the calls is not given here.

Experiments:
Type in all cases: functional
Staphylococcus aureus [1] = assay: Antibacterial activity against Staphylococcus aureus at 25 ug/ml after 24 hrs by agar well diffusion method
Staphylococcus aureus [2] = assay: Antibacterial activity against Staphylococcus aureus at 50 ug/ml after 24 hrs by agar well diffusion method
Staphylococcus aureus [3] = assay: Antibacterial activity against Staphylococcus aureus at 75 ug/ml after 24 hrs by agar well diffusion method
Staphylococcus aureus [4] = assay: Antibacterial activity against Staphylococcus aureus at 100 ug/ml after 24 hrs by agar well diffusion method
Bacillus subtilis [5] = assay: Antibacterial activity against Bacillus subtilis at 25 ug/ml after 24 hrs by agar well diffusion method
Bacillus subtilis [6] = assay: Antibacterial activity against Bacillus subtilis at 50 ug/ml after 24 hrs by agar well diffusion method
Bacillus subtilis [7] = assay: Antibacterial activity against Bacillus subtilis at 75 ug/ml after 24 hrs by agar well diffusion method
Bacillus subtilis [8] = assay: Antibacterial activity against Bacillus subtilis at 100 ug/ml after 24 hrs by agar well diffusion method
Escherichia coli [9] = assay: Antibacterial activity against Escherichia coli at 25 ug/ml after 24 hrs by agar well diffusion method
Escherichia coli [10] = assay: Antibacterial activity against Escherichia coli at 50 ug/ml after 24 hrs by agar well diffusion method
Escherichia coli [11] = assay: Antibacterial activity against Escherichia coli at 75 ug/ml after 24 hrs by agar well diffusion method
Escherichia coli [12] = assay: Antibacterial activity against Escherichia coli at 100 ug/ml after 24 hrs by agar well diffusion method
Klebsiella pneumoniae [13] = assay: Antibacterial activity against Klebsiella pneumoniae at 25 ug/ml after 24 hrs by agar well diffusion method
Klebsiella pneumoniae [14] = assay: Antibacterial activity against Klebsiella pneumoniae at 50 ug/ml after 24 hrs by agar well diffusion method
Klebsiella pneumoniae [15] = assay: Antibacterial activity against Klebsiella pneumoniae at 75 ug/ml after 24 hrs by agar well diffusion method
Klebsiella pneumoniae [16] = assay: Antibacterial activity against Klebsiella pneumoniae at 100 ug/ml after 24 hrs by agar well diffusion method
Staphylococcus aureus [17] = assay: Antibacterial activity against methicillin resistant Staphylococcus aureus MRSA090 at 25 ug/ml after 24 hrs by agar well diffusion method
Staphylococcus aureus [18] = assay: Antibacterial activity against methicillin resistant Staphylococcus aureus MRSA090 at 50 ug/ml after 24 hrs by agar well diffusion method
Staphylococcus aureus [19] = assay: Antibacterial activity against methicillin resistant Staphylococcus aureus MRSA090 at 75 ug/ml after 24 hrs by agar well diffusion method
Staphylococcus aureus [20] = assay: Antibacterial activity against methicillin resistant Staphylococcus aureus MRSA090 at 100 ug/ml after 24 hrs by agar well diffusion method
Aspergillus niger [21] = assay: Antifungal activity against Aspergillus niger at 25 ug/ml after 48 hrs by agar well diffusion method
Aspergillus niger [22] = assay: Antifungal activity against Aspergillus niger at 50 ug/ml after 48 hrs by agar well diffusion method
Aspergillus niger [23] = assay: Antifungal activity against Aspergillus niger at 75 ug/ml after 48 hrs by agar well diffusion method
Aspergillus niger [24] = assay: Antifungal activity against Aspergillus niger at 100 ug/ml after 48 hrs by agar well diffusion method
Fusarium verticillioides [25] = assay: Antifungal activity against Fusarium moniliforme at 25 ug/ml after 48 hrs by agar well diffusion method
Fusarium verticillioides [26] = assay: Antifungal activity against Fusarium moniliforme at 50 ug/ml after 48 hrs by agar well diffusion method
Fusarium verticillioides [27] = assay: Antifungal activity against Fusarium moniliforme at 75 ug/ml after 48 hrs by agar well diffusion method
Fusarium verticillioides [28] = assay: Antifungal activity against Fusarium moniliforme at 100 ug/ml after 48 hrs by agar well diffusion method
Fusarium oxysporum [29] = assay: Antifungal activity against Fusarium oxysporum at 25 ug/ml after 48 hrs by agar well diffusion method
Fusarium oxysporum [30] = assay: Antifungal activity against Fusarium oxysporum at 50 ug/ml after 48 hrs by agar well diffusion method
Fusarium oxysporum [31] = assay: Antifungal activity against Fusarium oxysporum at 75 ug/ml after 48 hrs by agar well diffusion method
Fusarium oxysporum [32] = assay: Antifungal activity against Fusarium oxysporum at 100 ug/ml after 48 hrs by agar well diffusion method

| SMILES | diameter of the inhibition zone (DIZ) (Staphylococcus aureus [1]) | diameter of the inhibition zone (DIZ) (Staphylococcus aureus [2]) | diameter of the inhibition zone (DIZ) (Staphylococcus aureus [3]) | diameter of the inhibition zone (DIZ) (Staphylococcus aureus [4]) | diameter of the inhibition zone (DIZ) (Klebsiella pneumoniae [13]) | diameter of the inhibition zone (DIZ) (Klebsiella pneumoniae [14]) | diameter of the inhibition zone (DIZ) (Staphylococcus aureus [17]) | diameter of the inhibition zone (DIZ) (Staphylococcus aureus [18]) | diameter of the inhibition zone (DIZ) (Staphylococcus aureus [19]) | diameter of the inhibition zone (DIZ) (Staphylococcus aureus [20]) | diameter of the inhibition zone (DIZ) (Aspergillus niger [21]) | diameter of the inhibition zone (DIZ) (Aspergillus niger [22]) | diameter of the inhibition zone (DIZ) (Aspergillus niger [23]) | diameter of the inhibition zone (DIZ) (Aspergillus niger [24]) | diameter of the inhibition zone (DIZ) (Fusarium verticillioides [25]) | diameter of the inhibition zone (DIZ) (Fusarium verticillioides [26]) | diameter of the inhibition zone (DIZ) (Fusarium verticillioides [27]) | diameter of the inhibition zone (DIZ) (Fusarium verticillioides [28]) | further results |
| --- | --- | --- | --- | --- | --- | --- | --- | --- | --- | --- | --- | --- | --- | --- | --- | --- | --- | --- | --- |
| CC/C=N/Nc1nc2cccc(C)c2s1 | inactive | inactive | inactive | inactive | inactive | inactive | inactive | inactive | inactive | inactive | inactive | inactive | inactive | inactive | inactive | inactive | inactive | inactive | diameter of the inhibition zone (DIZ) (Bacillus subtilis [5]): inactive; diameter of the inhibition zone (DIZ) (Bacillus subtilis [6]): inactive; diameter of the inhibition zone (DIZ) (Bacillus subtilis [7]): inactive; diameter of the inhibition zone (DIZ) (Bacillus subtilis [8]): inactive; diameter of the inhibition zone (DIZ) (Escherichia coli [9]): inactive; diameter of the inhibition zone (DIZ) (Escherichia coli [10]): inactive; diameter of the inhibition zone (DIZ) (Escherichia coli [11]): inactive; diameter of the inhibition zone (DIZ) (Escherichia coli [12]): inactive; diameter of the inhibition zone (DIZ) (Klebsiella pneumoniae [15]): inactive; diameter of the inhibition zone (DIZ) (Klebsiella pneumoniae [16]): inactive; diameter of the inhibition zone (DIZ) (Fusarium oxysporum [29]): inactive; diameter of the inhibition zone (DIZ) (Fusarium oxysporum [30]): inactive; diameter of the inhibition zone (DIZ) (Fusarium oxysporum [31]): inactive; diameter of the inhibition zone (DIZ) (Fusarium oxysporum [32]): inactive |
| Cc1cccc2nc(N/N=C/c3ccccc3)sc12 | inactive | inactive | inactive | inactive | inactive | inactive | inactive | inactive | inactive | inactive | inactive | inactive | inactive | inactive | inactive | inactive | inactive | inactive | zone of inhibition at 25 µg/mL (Bacillus subtilis [5]; read-out: DIZ): 5 mm; zone of inhibition at 50 µg/mL (Bacillus subtilis [6]; read-out: DIZ): 7 mm; zone of inhibition at 75 µg/mL (Bacillus subtilis [7]; read-out: DIZ): 11 mm; zone of inhibition at 100 µg/mL (Bacillus subtilis [8]; read-out: DIZ): 13 mm; zone of inhibition at 25 µg/mL (Escherichia coli [9]; read-out: DIZ): 9 mm; zone of inhibition at 50 µg/mL (Escherichia coli [10]; read-out: DIZ): 11 mm; zone of inhibition at 75 µg/mL (Escherichia coli [11]; read-out: DIZ): 13 mm; zone of inhibition at 100 µg/mL (Escherichia coli [12]; read-out: DIZ): 15 mm; zone of inhibition at 75 µg/mL (Klebsiella pneumoniae [15]; read-out: DIZ): 7 mm; zone of inhibition at 100 µg/mL (Klebsiella pneumoniae [16]; read-out: DIZ): 10 mm; zone of inhibition at 25 µg/mL (Fusarium oxysporum [29]; read-out: DIZ): 4 mm; zone of inhibition at 50 µg/mL (Fusarium oxysporum [30]; read-out: DIZ): 8 mm; zone of inhibition at 75 µg/mL (Fusarium oxysporum [31]; read-out: DIZ): 13 mm; zone of inhibition at 100 µg/mL (Fusarium oxysporum [32]; read-out: DIZ): 16 mm |
